Measurements as given in US8030298B2, “17β-HSD1 and STS inhibitors” (Abbott Products GmbH, priority 2005, dated 2011).

Biological target: T1, recombinant human 17β-hydroxysteroid dehydrogenase type 1 (Homo sapiens, UniProt P14061)
T1 construct: made in house; host or cells: Sf9 insect cells (baculovirus, Bac to Bac Expression System)
T1 sequence (P14061 1-328): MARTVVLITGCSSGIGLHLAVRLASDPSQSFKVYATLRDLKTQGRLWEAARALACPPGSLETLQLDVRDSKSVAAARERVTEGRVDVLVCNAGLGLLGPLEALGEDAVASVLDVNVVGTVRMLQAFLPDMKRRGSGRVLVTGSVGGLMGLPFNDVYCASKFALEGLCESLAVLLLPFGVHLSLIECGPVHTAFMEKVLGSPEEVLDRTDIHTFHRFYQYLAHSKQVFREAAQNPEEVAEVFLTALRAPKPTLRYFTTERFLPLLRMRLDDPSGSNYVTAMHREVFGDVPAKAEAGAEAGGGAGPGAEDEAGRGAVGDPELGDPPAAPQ
Assay: Inhibition of recombinant human 17β-hydroxysteroid dehydrogenase type 1 (3H-estrone to estradiol conversion, HPLC)
Assay type: biochemical
Details: read-out: Inhibition of rec. 17β-HSD1 (% inhibition); for inhibition at 0.1 µM: inhibitor concentration 100 nM; for inhibition at 1 µM: 0.5 h, inhibitor concentration 1 μm
Description: 17β-HSD1 purification: Recombinant baculovirus was generated by the “Bac to Bac Expression System” (Invitrogen). Recombinant bacmid was transfected to Sf9 insect cells using “Cellfectin Reagent” (Invitrogen). 60 h later cells were harvested; the microsomal fraction was isolated as described by Puranen et al. (1994). Aliquots were stored frozen until determination of enzymatic activity.
Assay—Inhibition of recombinant human 17β-hydroxysteroid dehydrogenase type 1: Recombinant protein (0.1 μg/ml) was incubated in 20 mM KH2PO4 pH 7.4 with 30 nM 3H-estrone and 1 mM NADPH for 30 min at RT, in the presence of potential inhibitors at concentrations of 1 μM or 0.1 μM. Inhibitor stock solutions were prepared in DMSO. Final concentration of DMSO was adjusted to 1% in all samples. The enzyme reaction was stopped by addition of 10% trichloroacetic acid (final concentration). Samples were centrifuged in a microtiter plate at 4000 rpm for 10 min. Supernatants were applied to reverse phase HPLC on a Waters Symmetry C18 column, equipped with a Waters Sentry Guard column. Isocratic HPLC runs were performed at RT at a flow rate of 1 ml/min of acetonitrile:water 48:52 as running solvent. Radioactivity was monitored in the eluate by a Packard Flow Scintillation Analyzer. Total radioactivity for estrone and estradiol were determined in each sample and percent conversion of estrone to estradiol was calculated according to the following formula:
Percent inhibition was calculated as follows: % inhibition=100−% conversion

| SMILES | inhibition at 0.1 µM | inhibition at 1 µM |
| --- | --- | --- |
| C[C@]12CC[C@@H]3c4ccc(OCc5ccccc5)cc4CC[C@H]3[C@@H]1[C@H](C/C=C/C(=O)N1CCOCC1)c1cnoc12 [161′] | 21% | – |
| CCCc1cc2c(cc1O)CC[C@H]1[C@@H]3[C@H](CCCC(=O)NCc4ccc5c(c4)OCO5)CC(=O)[C@@]3(C)CC[C@H]21 [Compound 30] | 39.8% | – |
| CCCc1cc2c(cc1O)CC[C@H]1[C@@H]3[C@H](CCCC(=O)NCc4cccnc4)CC(=O)[C@@]3(C)CC[C@H]21 [Compound 32] | 50% | – |
| CCCc1cc2c(cc1O)CC[C@H]1[C@@H]3[C@H](CCCC(=O)NCCc4c[nH]c5c(C)cccc45)CC(=O)[C@@]3(C)CC[C@H]21 [Compound 34] | 68.8% | – |
| CCCc1cc2c(cc1O)CC[C@H]1[C@@H]3[C@H](CCCC(=O)N4CCCCC4)CC(=O)[C@@]3(C)CC[C@H]21 [Compound 36] | 56.9% | – |
| CCCc1cc2c(cc1O)CC[C@H]1[C@@H]3[C@H](CCCC(=O)N(C)Cc4ccccc4)CC(=O)[C@@]3(C)CC[C@H]21 [Compound 37] | 64% | – |
| CCCc1cc2c(cc1O)CC[C@H]1[C@@H]3[C@H](CCCC(=O)N(C)CCc4ccc(OC)c(OC)c4)CC(=O)[C@@]3(C)CC[C@H]21 [Compound 38] | 51% | – |
| CCCc1cc2c(cc1O)CC[C@H]1[C@@H]3[C@H](CCCC(=O)Nc4ccc5cn[nH]c5c4)CC(=O)[C@@]3(C)CC[C@H]21 [Compound 40] | 72% | – |
| CCCc1cc2c(cc1O)CC[C@H]1[C@@H]3[C@H](CCCC(=O)NCCOC)CC(=O)[C@@]3(C)CC[C@H]21 [Compound 41] | 25.9% | – |
| CCCc1cc2c(cc1O)CC[C@H]1[C@@H]3[C@H](CCCC(=O)NCc4ccc(F)cc4F)CC(=O)[C@@]3(C)CC[C@H]21 [Compound 42] | 53.3% | – |
| CCOc1cc2c(cc1O)CC[C@H]1[C@@H]3[C@@H](CCCC(=O)NC4CCCCC4)CC(=O)[C@@]3(C)CC[C@H]21 [Compound 44] | 55.5% | – |
| CCOc1cc2c(cc1O)CC[C@H]1[C@@H]3[C@@H](CCCC(=O)NCc4ccc5c(c4)OCO5)CC(=O)[C@@]3(C)CC[C@H]21 [Compound 45] | 54% | – |
| CCOc1cc2c(cc1O)CC[C@H]1[C@@H]3[C@@H](CCCC(=O)NCCc4c[nH]c5c(C)cccc45)CC(=O)[C@@]3(C)CC[C@H]21 [Compound 52] | 50% | 72.2% |
| CCOc1cc2c(cc1O)CC[C@H]1[C@@H]3[C@@H](CCCC(=O)N4CCCCC4)CC(=O)[C@@]3(C)CC[C@H]21 [Compound 55] | 42.6% | 71.9% |
| CCOc1cc2c(cc1O)CC[C@H]1[C@@H]3[C@@H](CCCC(=O)Nc4ccc5cn[nH]c5c4)CC(=O)[C@@]3(C)CC[C@H]21 [Compound 59] | 56.1% | 69.7% |
| COc1cc2c(cc1O)CC[C@H]1[C@@H]3[C@@H](CCCC(=O)NC4CCCCC4)CC(=O)[C@@]3(C)CC[C@H]21 [Compound 67] | 42.5% | 73.2% |
| COc1cc2c(cc1O)CC[C@H]1[C@@H]3[C@@H](CCCC(=O)NCc4ccccc4)CC(=O)[C@@]3(C)CC[C@H]21 [Compound 71] | 45.8% | 70.6% |
| COc1cc2c(cc1O)CC[C@H]1[C@@H]3[C@@H](CCCC(=O)N4CCCCC4)CC(=O)[C@H]3CC[C@H]21 [Compound 78] | 40.6% | 72% |
| COc1cc2c(cc1O)CC[C@H]1[C@@H]3[C@@H](CCCC(=O)Nc4ccc5cn[nH]c5c4)CC(=O)[C@@]3(C)CC[C@H]21 [Compound 83] | 53.9% | 71.6% |
| C[C@]12CC[C@@H]3c4ccc(O)cc4CC[C@H]3[C@@H]1[C@@H](CCCC(=O)NC1CCCCC1)CC2(F)F [Compound 102] | 41.6% | 70.6% |

| SMILES | inhibition at 0.1 µM | inhibition at 1 µM |
| --- | --- | --- |
| C[C@]12CC[C@@H]3c4ccc(O)cc4CC[C@H]3[C@@H]1[C@@H](CCCC(=O)NCc1ccccc1)CC2(F)F [Compound 106] | 36.7% | 68% |
| C[C@]12CC[C@@H]3c4ccc(O)cc4CC[C@H]3[C@@H]1[C@@H](CCCC(=O)NCc1ccc(O)c(O)c1)CC2(F)F [Compound 109] | 35.1% | 70.7% |
| Cc1cccc2c(CCNC(=O)CCC[C@H]3CC(F)(F)[C@@]4(C)CC[C@@H]5c6ccc(O)cc6CC[C@H]5[C@H]34)c[nH]c12 [Compound 111] | 50.6% | 68.3% |
| C[C@]12CC[C@@H]3c4ccc(O)cc4CC[C@H]3[C@@H]1[C@@H](CCCC(=O)N1CCCCC1)CC2(F)F [Compound 113] | 47.2% | 76.9% |
| COc1ccc(CCN(C)C(=O)CCC[C@H]2CC(F)(F)[C@@]3(C)CC[C@@H]4c5ccc(O)cc5CC[C@H]4[C@H]23)cc1OC [Compound 116] | 49.3% | – |
| C[C@]12CC[C@@H]3c4ccc(O)cc4CC[C@H]3[C@@H]1[C@H](CCC(=O)NC1CC1)CC2(F)F [Compound 120] | 37.3% | – |
| C[C@]12CC[C@@H]3c4ccc(O)cc4CC[C@H]3[C@@H]1[C@H](CCC(=O)NC1CCCCC1)CC2(F)F [Compound 121] | 63.6% | – |
| C[C@]12CC[C@@H]3c4ccc(O)cc4CC[C@H]3[C@@H]1[C@H](CCC(=O)NCc1ccc3c(c1)OCO3)CC2(F)F [Compound 122] | 34% | – |
| C[C@]12CC[C@@H]3c4ccc(O)cc4CC[C@H]3[C@@H]1[C@H](CCC(=O)NCc1ccccc1)CC2(F)F [Compound 125] | 29.2% | – |
| C[C@]12CC[C@@H]3c4ccc(O)cc4CC[C@H]3[C@@H]1[C@H](CCC(=O)NCc1ccc(O)c(O)c1)CC2(F)F [Compound 127] | 21.1% | – |
| COc1cc(CNC(=O)CC[C@@H]2CC(F)(F)[C@@]3(C)CC[C@@H]4c5ccc(O)cc5CC[C@H]4[C@H]23)cc(OC)c1 [Compound 128] | 21.2% | – |
| Cc1cccc2c(CCNC(=O)CC[C@@H]3CC(F)(F)[C@@]4(C)CC[C@@H]5c6ccc(O)cc6CC[C@H]5[C@H]34)c[nH]c12 [Compound 129] | 33.1% | – |
| C[C@]12CC[C@@H]3c4ccc(O)cc4CC[C@H]3[C@@H]1[C@H](CCC(=O)N1CCCCC1)CC2(F)F [Compound 131] | 19.8% | – |
| CCN(CC)C(=O)CC[C@@H]1CC(F)(F)[C@@]2(C)CC[C@@H]3c4ccc(O)cc4CC[C@H]3[C@H]12 [Compound 133] | 71.4% | – |
| COc1ccc(CCN(C)C(=O)CC[C@@H]2CC(F)(F)[C@@]3(C)CC[C@@H]4c5ccc(O)cc5CC[C@H]4[C@H]23)cc1OC [Compound 134] | 50.5% | – |
| CCCc1cc2c(cc1O)CC[C@H]1[C@@H]3[C@H](CCCC(=O)NCc4ccccc4)CC(=O)[C@@]3(C)CC[C@H]21 [Example 2, N-Benzyl-4-(3-hydroxy-17-oxo-2-propyl-estra-1,3,5(10)-trien-15β-yl)-butyramide] | 54.8% | – |
| COCCc1cc2c(cc1O)CC[C@H]1[C@@H]3[C@H](CCCC(=O)NCc4ccccc4)CC(=O)[C@@]3(C)CC[C@H]21 [Example 3, N-Benzyl-4-(3-hydroxy-2-(2-methoxy-ethyl)-17-oxo-estra-1,3,5(10)-trien-15β-yl)-butyramide] | 19.6% | – |
| CCCc1cc2c(cc1O)CC[C@H]1[C@@H]3[C@H](CCCC(=O)N4CCOCC4)CC(=O)[C@@]3(C)CC[C@H]21 [Example 6, 3-Hydroxy-15β-(4-morpholin-4-yl-4-oxo-butyl)-2-propyl-estra-1,3,5(10)-trien-17-one] | 37.9% | – |
| C[C@]12CC[C@@H]3c4ccc(O)cc4CC[C@H]3[C@@H]1[C@H](CCCC(=O)N1CCOCC1)CC2(F)F [Example 90] | 63.5% | – |
| C[C@]12CC[C@@H]3c4ccc(O)cc4CC[C@H]3[C@@H]1[C@@H](CCCC(=O)N1CCOCC1)CC2(F)F [Example 91, 4-(17,17-Difluoro-3-hydroxy-estra-1,3,5(10)-trien-15α-yl)-1-morpholin-4-yl-butan-1-one] | 32% | – |
